Laboratory results from patent publication US10251841B2, “Polymeric depots for localization of agent to biological sites” (TRUSTEES OF BOSTON UNIVERSITY, priority 2011, dated 2019).

Assays:
Assay in all cases: Cell proliferation assay, MTT, 5 days
Conditions in all cases: media containing 10% FBS
[1] = tested on: Calu6 (human lung cancer); format: cell-based
Description: (§1) Melanoma B16 (murine), Calu 6 (human lung carcinoma), A549 (human lung carcinoma), LLC (murine Lewis Lung Carcinoma), NCI-H460 (human lung), MSTO-211H (human mesothelioma), MSTO-211H-Luc (luciferase transfected human mesothelioma), MCF7 (human breast), LMS05 (human sarcoma) were incubated (37° C., 5% CO2) with MEM (with 10% fetal bovine serum (FBS), 1% essential amino acids, and 1% Penicillin/Streptomyocin with L glutamine (Pen/Strep), F-12 HAM (with 10% FBS and 1% Pen/Strep), DMEM (with 10% FBS and 1% Pen/Strep) media, or DMEM (with 10% FBS and 1% GPS), with media changes once every three days. When not cultured, all cell lines were stored in RPMI freezing media at −80° C. (with 50% FBS, 40% RPMI and 10% dimethyl sulfoxide (DMSO)). Cell lines were trypsinized from the plates and seeded into 96 well plates at a concentration of 3000 cells per well. All cell lines were cultured for a period of at least seven days before being tested in cell uptake or proliferation assays etc.
(§2) Cell proliferation assays testing the effects of paclitaxel encapsulated within nanoparticles were performed using three tumor cell lines. Lewis Lung Carcinoma (LLC), Melanoma, and Calu6 (human lung cancer) cell lines were plated at 3,000 cells/well and when established, cultured in media with/without paclitaxel. […] At the end of 5 days, tumor cell proliferation was assessed via MTT analysis. […]

[2] = tested on: Lewis Lung Carcinoma (LLC); format: cell-based, murine
Description: as §1, §2

Melanoma = format: cell-based, murine
Description: as §1, §2

Measured: concentration that reliably inhibits growth

CC(=O)O[C@H]1C(=O)[C@@]2(C)[C@H]([C@H](OC(=O)c3ccccc3)[C@]3(O)C[C@H](OC(=O)[C@H](O)[C@@H](NC(=O)c4ccccc4)c4ccccc4)C(C)=C1C3(C)C)[C@]1(OC(C)=O)CO[C@@H]1C[C@@H]2O [paclitaxel]
1 to 10 ng/mL: [1] | [2] | Melanoma
